In ChEMBL document CHEMBL5512632, “Unlocking the potential of 1,4-naphthoquinones: A comprehensive review of their anticancer properties” (Eur J Med Chem, 2024):
One block for each compound: values may come before it.

Tests used:
[1] = Cytotoxicity against human OC3-IV2 cells incubated for 48 hrs by MTT reagent based spectrophotometric analysis; format: functional, cell-based; details: OC3-IV2, 48 h
U-87 MG [2] = assay: Cytotoxicity against human U87 cells incubated for 48 hrs by MTT reagent based spectrophotometric analysis; format: functional, cell-based, U-87MG ATCC
NCI-H1299 [3] = assay: Cytotoxicity against human NCI-H1299 cells incubated for 48 hrs by MTT reagent based spectrophotometric analysis; format: functional, cell-based; details: NCI-H1299, 48 h
[4] = Antitumor activity against human OC3-IV2 cells xenografted in CB17-Prkdcscid/CrlNarl mouse assessed as reduction in tumor size at 2 mg/kg,ip administrated once every 3 days for 2 weeks; format: functional; parameters: scale not given: the % may be the effect or the level left
PC-3 = assay: Cytotoxicity against human PC-3 cells incubated for 48 hrs by MTT reagent based spectrophotometric analysis; format: functional, cell-based; details: PC-3, 48 h
SCC-25 [5] = assay: Induction of apoptosis in human SCC-25 cells at 7 uM incubated for 48 hrs by annexin V-FITC/PI staining based flow cytometry relative to control; format: functional
SCC-9 = assay: Cytotoxicity against human SCC-9 cells incubated for 48 hrs by MTT assay; format: functional, cell-based; details: SCC-9, 48 h
SCC-25 [6] = assay: Cytotoxicity against human SCC-25 cells incubated for 48 hrs by MTT assay; format: functional, cell-based; details: SCC-25, 48 h
A253 cell line = assay: Cytotoxicity against human A253 cell line incubated for 48 hrs by MTT assay; format: functional, cell-based; details: A253, 48 h
HepG2 [7] = assay: Cytotoxicity against human HepG2 cells assessed as reduction in cell viability incubated for 48 hrs by MTT reagent based spectrophotometric analysis; format: functional; details: HepG2, 48 h
HepG2 [8] = assay: Antitumor activity against human HepG2 cells xenografted in BALB/c mouse assessed as reduction in tumor growth at 10 to 20 mg/kg,iv administrated once every 3 days for 3 weeks; format: functional; parameters: scale not given: the % may be the effect or the level left; details: dose 10-20 mg/kg
HCT-116 [9] = assay: Cytotoxicity against human HCT-116 cells assessed as reduction in cell viability incubated for 48 hrs by MTT reagent based spectrophotometric analysis; format: functional; details: HCT-116, 48 h
SK-OV-3 = assay: Cytotoxicity against human SK-OV-3 cells assessed as reduction in cell viability incubated for 48 hrs by MTT reagent based spectrophotometric analysis; format: functional; details: SK-OV-3, 48 h
[10] = Antiproliferative activity against human SUM1315MO2 cells incubated for 24 hrs by CCK-8 assay; format: functional, cell-based; details: SUM1315MO2, 24 h
MDA-MB-231 [11] = assay: Antiproliferative activity against human MDA-MB-231 cells incubated for 24 hrs by CCK-8 assay; format: functional, cell-based; details: MDA-MB-231, 24 h
MDA-MB-231 [12] = assay: Antitumor activity against human MDA-MB-231 cells xenografted in mouse assessed as reduction in tumor volume; format: functional
MDA-MB-453 = assay: Antiproliferative activity against human MDA-MB-453 cells incubated for 24 hrs by CCK-8 assay; format: functional, cell-based; details: MDA-MB-453, 24 h
MCF7 [13] = assay: Antiproliferative activity against human MCF7 cells incubated for 24 hrs by CCK-8 assay; format: functional, cell-based; details: MCF7, 24 h
[14] = Antitumor activity against mouse Lewis lung carcinoma cell line implanted in C57BL/6J mouse assessed as reduction in tumor volume at 6 mg/kg administration; format: functional; parameters: scale not given: the % may be the effect or the level left
HCT-116 [15] = assay: Antiproliferative activity against human HCT-116 cells incubated for 72 hrs by MTT assay; format: functional, cell-based; details: HCT-116, 72 h
HepG2 [16] = assay: Antiproliferative activity against human HepG2 cells incubated for 72 hrs by MTT assay; format: functional, cell-based; details: HepG2, 72 h
A549 [17] = assay: Antiproliferative activity against human A549 cells incubated for 72 hrs by MTT assay; format: functional, cell-based; details: A549, 72 h
SW480 [18] = assay: Cytotoxicity against human SW480 cells incubated for 24 hrs by CCK-8 assay; format: functional, cell-based; details: SW480, 24 h
Huh-7 = assay: Cytotoxicity against human Huh-7 cells incubated for 24 hrs by CCK-8 assay; format: functional, cell-based; details: Huh-7, 24 h
SK-BR-3 = assay: Cytotoxicity against human SK-BR-3 cells incubated for 24 hrs by CCK-8 assay; format: functional, cell-based; details: SK-BR-3, 24 h
SW-620 = assay: Cytotoxicity against human SW620 cells incubated for 24 hrs by CCK-8 assay; format: functional, cell-based; details: SW-620, 24 h
A549 [19] = assay: Cytotoxicity against human A549 cells incubated for 24 hrs by CCK-8 assay; format: functional, cell-based; details: A549, 24 h
NCI-H1299 [20] = assay: Cytotoxicity against human NCI-H1299 cells incubated for 24 hrs by CCK-8 assay; format: functional, cell-based; details: NCI-H1299, 24 h
MDA-MB-231 [21] = assay: Cytotoxicity against human MDA-MB-231 cells incubated for 24 hrs by CCK-8 assay; format: functional, cell-based; details: MDA-MB-231, 24 h
HepG2 [22] = assay: Cytotoxicity against human HepG2 cells incubated for 24 hrs by CCK-8 assay; format: functional, cell-based; details: HepG2, 24 h
SW480 [23] = assay: Antitumor activity against human SW480 cells xenografted in BALB/c mouse assessed as reduction in tumor volume at 20 mg/kg,po administrated with olaparib for 15 days; format: functional; parameters: scale not given: the % may be the effect or the level left; details: time 15 day
BT-549 = assay: Cytotoxicity against human BT-549 cells incubated for 24 hrs by CCK-8 assay; format: functional, cell-based; details: BT-549, 24 h
HCT-116 [24] = assay: Cytotoxicity against human HCT-116 cells incubated for 24 hrs by CCK-8 assay; format: functional, cell-based; details: HCT-116, 24 h
MDA-MB-468 = assay: Cytotoxicity against human MDA-MB-468 cells incubated for 24 hrs by CCK-8 assay; format: functional, cell-based; details: MDA-MB-468, 24 h
MCF7 [25] = assay: Cytotoxicity against human MCF7 cells incubated for 24 hrs by CCK-8 assay; format: functional, cell-based; details: MCF7, 24 h
NCI-H460 = assay: Cytotoxicity against human NCI-H460 cells incubated for 24 hrs by CCK-8 assay; format: functional, cell-based; details: NCI-H460, 24 h
HepG2 [26] = assay: Antiproliferative activity against human HepG2 cells assessed as inhibition of cell growth incubated upto 48 hrs by MTT assay; format: functional, cell-based; details: HepG2, 48 h
U-87 MG [27] = assay: Antitumor activity against human U87 cells xenografted in BALB/c mouse assessed as increase in survival time of animal at 1 mg/kg,ip administrated once every 3 days for 40 days; format: functional, U-87MG ATCC; details: time 40 day
C6 [28] = assay: Antitumor activity against rat C6 cells implanted in Wistar rat assessed as reduction in tumor volume at 100 mg/kg,IG administration once daily for 20 days; format: functional; parameters: scale not given: the % may be the effect or the level left; details: time 20 day
C6 [29] = assay: Antiproliferative activity against rat C6 cells assessed as inhibition of cell growth incubated for 48 hrs by MTS/PMS assay; format: functional, cell-based; details: C6, 48 h
DBTRG-05MG [30] = assay: Antiproliferative activity against human DBTRG-05MG cells assessed as inhibition of cell growth incubated for 72 hrs in presence of sodium orthovanadate by cell counting kit method; format: functional, cell-based
DBTRG-05MG [31] = assay: Antiproliferative activity against human DBTRG-05MG cells assessed as inhibition of cell growth incubated for 72 hrs by cell counting kit method; format: functional, cell-based; details: Homo sapiens, DBTRG-05MG, 72 h
AGS = assay: Cytotoxicity against human AGS cells incubated for 24 hrs by MTS assay; format: functional, cell-based
MCF7 [32] = assay: Cytotoxicity against human MCF7 cells incubated for 7 days by MTT assay; format: functional, cell-based; details: MCF7, 168 h
[33] = Cytotoxicity against human MCF7/LCC9 cells incubated for 7 days by MTT assay; format: functional, cell-based; details: MCF7, 168 h
MDA-MB-231 [34] = assay: Antiproliferative activity against human MDA-MB-231 cells assessed as inhibition of cell growth incubated for 48 hrs by crystal violet staining based ELISA; format: functional; details: MDA-MB-231, 48 h
EL4 = assay: Antitumor activity against mouse EL4 cells implanted in C57BL/6 mouse assessed as increase in survival of animal at 2 mg/kg,ip administrated for 5 consecutive days for 3 weeks; format: functional
MCF7 [35] = assay: Antiproliferative activity against human MCF7 cells assessed as inhibition of cell growth incubated for 48 hrs by crystal violet staining based ELISA; format: functional; details: MCF7, 48 h
HL-60 = assay: Cytotoxicity against human HL-60 cells assessed as reduction in cell viability incubated for 48 to 72 hrs by MTT assay; format: functional, cell-based
[36] = Cytotoxicity against human MCF7/LCC2 cells incubated for 7 days by MTT assay; format: functional, cell-based; details: MCF7/LCC2, 168 h

Compound: CC1=CC(=O)c2cccc(O)c2C1=O
IC50 [1]: 5.4 µM
IC50 (U-87 MG [2]): 2.4 µM
IC50 (NCI-H1299 [3]): 1.5 µM
Activity [4]: 50%
IC50 (PC-3): 6 µM

Compound: Cc1cn([C@H]2C[C@H](N=[N+]=[N-])[C@@H](COC3=C(Cl)C(=O)c4ccccc4C3=O)O2)c(=O)[nH]c1=O
Activity (SCC-25 [5]): 30%
IC50 (SCC-9): 8 µM
IC50 (SCC-25 [6]): 6.15 µM
IC50 (A253 cell line): 5.99 µM

Compound: CCCNC(=O)C(Cc1ccccc1)NC1=C/C(=N/O)c2ccccc2C1=O (stereo not given)
IC50 (HepG2 [7]): 0.16 µM
Activity (HepG2 [8]): >60%
IC50 (HCT-116 [9]): 0.18 µM
IC50 (SK-OV-3): 0.48 µM

IC50 (MDA-MB-231 [11]): 3.49 µM
IC50 (MDA-MB-453): 6.94 µM
IC50 (MCF7 [13]): 6.45 µM
Compound: COC(=O)C(NC(=O)CCCCC1CCSC(c2ccc(OC)cc2)S1)S[C@H](CC=C(C)C)C1=CC(=O)c2c(O)ccc(O)c2C1=O (stereo not given in full)
IC50 [10]: 10.5 µM
Activity (MDA-MB-231 [12]): 200 mm3

IC50 (HCT-116 [15]): > 20 µM
IC50 (HepG2 [16]): 14.8 µM
IC50 (A549 [17]): 1.67 µM
Compound: CC(C)=CC[C@H](OC(=O)C1CCOCC1)C1=CC(=O)c2c(O)ccc(O)c2C1=O
Activity [14]: 63.45%

Compound: CC(C)=CC[C@H](O)C1=CC(=O)c2c(O)ccc(O)c2C1=O [ALKANNIN]
IC50 (SW480 [18]): 4 µM
IC50 (Huh-7): 4 µM
IC50 (SK-BR-3): 4 µM
IC50 (SW-620): 4 µM
IC50 (A549 [19]): 4 µM
IC50 (NCI-H1299 [20]): 4 µM
IC50 (MDA-MB-231 [21]): 4 µM
IC50 (HepG2 [22]): 4 µM
Activity (SW480 [23]): >50%
IC50 (BT-549): 4 µM
IC50 (HCT-116 [24]): 4 µM
IC50 (MDA-MB-468): 4 µM
IC50 (MCF7 [25]): 4 µM
IC50 (NCI-H460): 4 µM

Compound: O=C1C=CC(=O)c2c(O)cccc21 [JUGLONE]
IC50 (HepG2 [26]): 20.4 µM
Activity (U-87 MG [27]): 23.6%

Compound: CC(C)=CCC1=C(O)C(=O)c2ccccc2C1=O [LAPACHOL]
Activity (C6 [28]): 37%
IC50 (C6 [29]): 3.7 µM

Compound: CC1=CC(=O)c2ccccc2C1=O [MENADIONE]
IC50 (DBTRG-05MG [30]): 13 µM
IC50 (DBTRG-05MG [31]): 22 µM

Compound: O=C1C=CC(=O)c2ccccc21 [NAPHTHOQUINONE]
IC50 (AGS): 2.5 µM

Compound: CC1=CC(=O)c2c(O)cccc2C1=O [PLUMBAGIN]
IC50 (MCF7 [32]): 1 µM
IC50 [33]: 1 µM
IC50 (MDA-MB-231 [34]): 1.5 µM
Activity (EL4): 80%
IC50 (MCF7 [35]): 1.5 µM
IC50 (HL-60): 1.5 µM
IC50 [36]: 1 µM
